In patent US10646427B2, “Cosmetic compositions comprising spiculisporic acid and an ester of fatty acid and(poly)glycerol optionally polyoxyalkylenated” (L'OREAL, priority 2013, dated 2020):

Tested on: reconstructed Episkin J13 skin model
Test: Episkin Peeling test (detachment of corneocytes measured by dosage of proteins)
Type: cell-based
Details: for desquamating efficacy (detachment of corneocytes) compared to 30% glycolic acid reference: 10 min treatment
Protocol: The Episkin Peeling test measures the detachment of corneocytes of the reconstructed Episkin J13 skin model. At this stage of maturation, the epidermis has a well differentiated stratum corneum (SC).
The sample is treated for 10 minutes with the control or test solution. The sample is taken and placed on the wall of a tube; its surface is then washed with a swab. The washing solution is filtered to preserve only the detached corneocytes. Their presence is measured by a dosage of proteins with the BCA Kit (PIERCE no. 23225).
The reference molecule is glycolic acid (AG). This is one of the compounds used in peeling at rates of occasionally up to 70%. It is applied for short times on the order of a few minutes and then neutralised.
The rate of 30% was used because it allows for good response dynamics with a short application time of 10 min.
Three Episkin batches are used for each study (n=3 per batch and per condition).
The evaluation of the raw materials (MP) is carried out by comparing the results of the MP to those obtained with 30% AG. The MP is effective if it reaches the level of the reference.
They were immersed in water. Spiculisporic acid was salified with potassium (KOH).
The dosage of free proteins, measured by DO, is to proportional to the quantity of corneocytes extracted, and thus to desquamation.

SMILES: O=C(O)CC(O)(CC(=O)O)C(=O)O [citric acid, Citric acid, reference compound]
- desquamating efficacy (detachment of corneocytes) compared to 30% glycolic acid reference (10% in water): does not reach the effect of the reference
- desquamating efficacy (detachment of corneocytes) compared to 30% glycolic acid reference (30% in water): reaches the efficacy level of the reference

SMILES: CCCCCCCC(=O)OCC(O)CO (stereo not shown) [GMCY, Glyceryl caprylate]
- desquamating efficacy (detachment of corneocytes) compared to 30% glycolic acid reference (5% in water): desquamating efficacy (almost) reaching that of the glycolic acid reference at 30%
- desquamating efficacy (detachment of corneocytes) compared to 30% glycolic acid reference (5% in water, listed as glyceryl caprylate): positive, but not significant, desquamation relative to the positive control

SMILES: O=C(O)CO [AG, glycolic acid, reference compound]
- detachment of corneocytes measured by dosage of proteins (FIG. 1) (10%, 30% and 50%): dose-dependent effect

SMILES: CCCCCCCCCCC(C(=O)O)C1(C(=O)O)CCC(=O)O1 (stereo not shown) [Spiculisporic acid K+, 4,5-dicarboxy-4-pentadecanolide]
- desquamating efficacy (detachment of corneocytes) compared to 30% glycolic acid reference (1% in water, salified with KOH): no effect on the detachment of corneocytes
- desquamating efficacy (detachment of corneocytes) compared to 30% glycolic acid reference (1% in water, salified with KOH, listed as spiculisporic acid): absence of desquamation
